Here are results for three compounds from publication PMC5466822 (Organic & biomolecular chemistry, 2016).

The structures appear in SMILES notation.

Experiment [1] addresses T1, p97 (Homo sapiens, UniProt P55072). Description: malachite green ATPase assay, 9-point dose-response. Format: biochemical.
In experiment [2] the target is T1, p97. Description: malachite green ATPase assay, dose-response. The experiment is classed as biochemical.

T1 sequence (P55072 2-806): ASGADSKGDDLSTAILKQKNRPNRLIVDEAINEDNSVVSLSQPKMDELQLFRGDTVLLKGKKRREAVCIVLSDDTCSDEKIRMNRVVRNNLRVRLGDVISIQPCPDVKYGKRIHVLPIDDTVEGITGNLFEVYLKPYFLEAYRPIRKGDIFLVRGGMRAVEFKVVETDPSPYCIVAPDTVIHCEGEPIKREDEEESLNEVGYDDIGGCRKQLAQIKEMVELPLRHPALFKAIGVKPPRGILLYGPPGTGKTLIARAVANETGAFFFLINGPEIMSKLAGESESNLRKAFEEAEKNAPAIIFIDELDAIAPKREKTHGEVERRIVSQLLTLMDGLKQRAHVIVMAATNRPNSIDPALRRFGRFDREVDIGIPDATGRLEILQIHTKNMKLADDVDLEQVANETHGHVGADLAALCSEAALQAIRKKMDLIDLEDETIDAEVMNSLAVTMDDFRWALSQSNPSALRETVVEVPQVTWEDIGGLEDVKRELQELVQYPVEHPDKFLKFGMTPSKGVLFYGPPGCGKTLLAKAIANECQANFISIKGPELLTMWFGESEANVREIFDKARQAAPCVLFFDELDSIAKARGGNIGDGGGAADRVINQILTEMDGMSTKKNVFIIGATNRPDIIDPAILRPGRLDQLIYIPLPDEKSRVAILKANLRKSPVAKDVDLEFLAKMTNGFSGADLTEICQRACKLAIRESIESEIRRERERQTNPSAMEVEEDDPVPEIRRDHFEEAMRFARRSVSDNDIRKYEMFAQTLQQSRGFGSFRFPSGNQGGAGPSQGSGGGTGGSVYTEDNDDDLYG

At p97 [1], `C[C@H]1CCC/C=C/C(=O)c2c(O)cc(O)cc2CC(=O)O1` [compound 2, 10(11)-dehydrocurvularin] returned an IC50 of 15.3 ± 9.9 µM.

`C[C@H]1CCC/C=C/C(=O)c2c(cc(O)c(Cl)c2O)CC(=O)O1` [compound 3, 6-chloro-10(11)-dehydrocurvularin] displayed an IC50 against p97 [2] of 24.3 µM.

Regarding `C[C@H]1CCC/C=C/C(=O)c2c(O)c(Cl)c(O)c(Cl)c2CC(=O)O1` [compound 4, 4,6-dichloro-10(11)-dehydrocurvularin], on p97 [2], the 50% inhibitory concentration (IC50) was found to be 13.9 µM.
